Data reported in PMC8006131, “Pulse Dipolar EPR Reveals Double-Histidine Motif Cu^II−NTA Spin-Labeling Robustness against Competitor Ions” (The journal of physical chemistry letters, 2021).
“And” between values parts separate entries of the source, which are not always exact repeats. Equal entries are not always repeated. Where two headings read alike, the source gives them in different places.

How the values were obtained:
I6R1/K28H/Q32H GB1 [1] = molecular target: T1, I6R1/K28H/Q32H GB1 (Streptococcus sp. group G, UniProt P06654, I232C/K254H/Q258H); conditions: pH 7.4; previous work; read-out: fitted dissociation constant; cited from earlier work
T1 construct: MTSL nitroxide spin label on Cys6 (R1 side chain); made in house

I6R1/K28H/Q32H GB1 [2] = molecular target: T1, I6R1/K28H/Q32H GB1; experiment: Cu^II-nitroxide RIDME pseudotitration (pulse dipolar EPR); assay type: binding; conditions: for Kd: read-out: fitted dissociation constant (bivariate fit)
Description: (§1) I Experimental Procedures:
(§2) 1.1 Construct Design, Expression and Purification:
(§3) Constructs of Streptococcus sp. group G, protein G B1 domain (GB1) were designed, expressed and purified as previously described.1,2 For completeness the protein sequences for the K28H/Q32H and I6C/K28H/Q32H GB1 constructs are given below in figures S1 and S2, respectively. The positions of the cysteine and double-histidine motif are indicated in cyan and green, respectively.
(§4) K28H/Q32H GB1 Protein Sequence:
(§5) Figure S1. Full amino-acid sequence for the K28H/Q32H GB1 construct used in this work, with each histidine residue of the double-histidine motif shown in green; and residue number indicated above the sequence.
(§6) I6C/K28H/Q32H GB1 Protein Sequence:
Figure S2. Full amino-acid sequence for the I6C/K28H/Q32H GB1 construct used in this work, with the cysteine residue shown in cyan and each histidine residue of the double-histidine motif shown in green; and residue numbers indicated […]
1.2 Pulse EPR Sample Preparation:
All material was exchanged into pH-adjusted deuterated buffer A (42.4 mM Na2HPO4, 7.6 mM KH2PO4, 150 mM NaCl) by first freeze-drying and then re-dissolving in D2O. For Q-band RIDME samples of 6R1/28H/32H GB1, a total volume of 70 μL was used, with protein concentrations of 1, 2, or 5 μM as stated. All EPR samples were frozen by direct immersion into liquid nitrogen. ZnII-NTA and CuII-NTA stock solutions were prepared as previously described1,3; and for labelling, ZnII-NTA and CuII-NTA stock solutions with nominal concentrations of 100 and 10 mM were used, […]
1.3 Metal Chelate Spin Label Preparation:
For preparation of all metal-NTA labels: CuII-NTA, and ZnII-NTA, , ZnCl2, CuCl2 and NTA were weighed in a glove-box and aliquoted into 1.5 mL reaction tubes. Stock solutions of 100 mM were prepared as previously described.3 Complete dissolution was ensured by vortexing until solutions were clear […]
of precipitate. […]
1.5 Pulse EPR Measurements:
All pulse EPR experiments were performed using a Bruker ELEXSYS 580 pulse EPR spectrometer.
Temperatures were maintained using a cryogen-free variable temperature cryostat (Cryogenic Ltd) operating in the 1.8-300 K temperature range. All measurements of the electron spin longitudinal relaxation times (T1) of CuII-NTA, and all 5-pulse dead-time free RIDME measurements4 were performed at 30 K, using a high-power 150 W travelling-wave tube (TWT; Applied Systems […]
an SRT of 2 ms, with 2560 points, 25 shots-per-point, and 1-5 scans, as stated. A τ of 800 ns was used, with an approximate time-window length of […], incremented in steps of 200 ns.
1.6 Competitive Binding Model:
Let us begin by considering a binding equilibrium in presence of a competitor ligand (A), with the following two approximations: i) the binding of the ligand (L) and (A) to a protein (P) is mutually exclusive, and ii) the competitor (A) binds to (P) weakly with respect to (L). Here we can define a dissociation constant for both the ligand (KDL) and for the competitor (KDA), given in (S1) and (S2) […]
Rearranging (S1) and (S2) for equilibrium concentrations of protein and protein-competitor complex, given as [P] and [PA] respectively, yields (S3) and (S4):
Here, an expression for total protein, [P]0, can be defined:
Substitution of (S3) and (S4) into (S5) yields (S6):
Symbolic substitution and rearrangement of (S6) to solve for [PL] yields (S7): […]

K28H/Q32H GB1 = molecular target: T2, K28H/Q32H GB1 (Streptococcus sp. group G, UniProt P06654, K254H/Q258H); experiment: Isothermal titration calorimetry (ITC) at 298 K, single-site binding model
T2 construct: made in house
Method: seconds between injections, at 298 K. All solutions were degassed before the use and the final samples were centrifuged immediately before measurements. For the ZnII-NTA measurements, K28H/Q32H GB1 concentration was 800 μΜ, and titrant concentration was 12 mM. For the variable pH measurements, K28H/Q32H GB1 concentration was 75 μM and titrant concentration was 2.5 mM. Blank conditions of either buffer A (42.4 mM Na2HPO4, 7.6 mM KH2PO4, 150 mM NaCl, pH 7.4) titrated against addition of 12 mM titrant, or pH adjusted buffer A titrated against addition of 1.0 or 2.0 mM titrant, were recorded for the competitor and variable pH ITC measurements, respectively.
Subtraction of the blank measurements from the raw data mitigated the heat of dilution. All data analyses were performed in MicroCal Origin 7 (OriginLab, Northampton, MA) and thermodynamic parameters were derived using standard Marquardt fitting of a single-site binding model, as in our previous work.1 The fitted equation is given as:
Where: 3($) is the heat content of the solution at the point of the <th injection, is the binding constant, 4 is the stoichiometry of binding, =7 is the molar heat of ligand binding, 8 is the active cell volume, 56 is the total concentration of macromolecule contained in 8 , :6 is the total concentration of ligand contained in 8 .
1.8 UV-visible Spectroscopy:
All UV-visible absorbance spectra were recorded using a Jenway 67 series UV-vis spectrophotometer, in plastic cuvettes with a path length of 10 mm, in single-beam mode. All spectra are recorded at ambient temperature, and with a wavelength resolution of 1 nm, in the wavelength range 320-800 nm. Each sample was blanked before measurement, and all were repeated in triplicate. Data was processed using the Jenway 67-series software suite, and were exported to ASCII format for plotting and analysis in Matlab. For quantitation of CuII-IDA and CuII-NTA concentration, molar extinction coefficients of 62 M-1 cm-1 and 59 M-1cm-1 at 726 nm, and 800 nm were used, respectively, taken from previous literature.1,11

I6R1/K28H/Q32H GB1 [3] = molecular target: T1, I6R1/K28H/Q32H GB1; experiment: Zn^II–NTA competitor RIDME pseudotitration (competition assay in presence of Cu^II–NTA); assay type: binding; conditions: low μM protein concentration
Method: The corresponding RIDME pseudotitration was performed at 1 μM protein concentration in the presence of 10 μM Cu^II– NTA (to ensure quantitative loading at the double histidine motif prior to addition of competitor ligand (see SI section 1.6)) and varying Zn^II–NTA concentrations. […] Additionally, this benchmarks quantitation of Cu^II-nitroxide RIDME modulation depths for remotely determining binding affinities of EPR silent ligands, in a competition assay format.
as §1, §2, §3, §4, §5, §6
Figure S2. […]

6R1/28H/32H GB1 = molecular target: 6R1/28H/32H GB1; design: method as in earlier work; conditions: pH 7.4; 75 μM protein, 2 mM CuII-NTA; cited from earlier work
[4] = pH 6.4, 298 K, listed as CuII-NTA

**Q.** With O=C([O-])CN(CC(=O)[O-])CC(=O)[O-].[Cu+2] [Cu^II–NTA, Cu^II-nitrilotriacetic acid] as the molecule, how does the Kd (I6R1/K28H/Q32H GB1 [1]) read?
**A.** The Kd was 0.14 µM.

**Q.** What about the “affinity reduction compared to pH 7.4” value (I6R1/K28H/Q32H GB1 [2]; pH 6.4) of the same molecule?
**A.** Its value is 2 fold.

**Q.** What about the “available double-histidine motifs saturated” value (I6R1/K28H/Q32H GB1 [2]; pH 6.4, 5 μM protein, 1 equiv of Cu^II–NTA) of the same molecule?
**A.** The value was roughly 70%.

**Q.** And the Kd (I6R1/K28H/Q32H GB1 [2]; pH 6.4, 5 μM protein)?
**A.** The Kd was 0.31 µM and 0.308 µM.

**Q.** And the “binding affinity higher than at pH 7.4” value (I6R1/K28H/Q32H GB1 [2]; pH 8.4)?
**A.** The value was “approximately 2 fold”.

**Q.** And the Kd (I6R1/K28H/Q32H GB1 [2]; pH 8.4, 2 μM protein)?
**A.** Its Kd is 0.091 µM.

**Q.** And the “binding at the double-histidine motif” value (K28H/Q32H GB1; pH 5.0, 298 K, 75 μM protein, 2 mM Cu^II–NTA)?
**A.** The value was “negligible binding”.

**Q.** What about the Wiseman factor (K28H/Q32H GB1; pH 6.4) of the same molecule?
**A.** Its Wiseman factor is 0.76.

**Q.** What about the “n (stoichiometry of binding)” value (K28H/Q32H GB1; pH 6.4, 298 K) of the same molecule?
**A.** Its value is ~ 1.

**Q.** And the ΔH (K28H/Q32H GB1; pH 6.4, 298 K)?
**A.** Its ΔH is -6.9 kcal/mol.

**Q.** And the “n (stoichiometry of binding)” value (K28H/Q32H GB1; [4])?
**A.** Its value is 0.97.

**Q.** And the ΔH (K28H/Q32H GB1; [4])?
**A.** The ΔH was -6.94 kcal/mol.

**Q.** What about the Kd (K28H/Q32H GB1; pH 6.4, 298 K, read-out: KD) of the same molecule?
**A.** Its Kd is 98.6 µM.

**Q.** What about the Kd (K28H/Q32H GB1; pH 6.4, ΔH extrapolated to 235 K, listed as CuII-NTA, read-out: Predicted KD at 235 K) of the same molecule?
**A.** The Kd was 4.26 µM.

**Q.** What about the Kd (K28H/Q32H GB1; pH 6.4, ΔH extrapolated to 235 K, read-out: Predicted KD at 235 K) of the same molecule?
**A.** Its Kd is roughly 4 µM.

**Q.** And the Wiseman factor (K28H/Q32H GB1; pH 8.4)?
**A.** The Wiseman factor was 9.42.

**Q.** What about the “n (stoichiometry of binding)” value (K28H/Q32H GB1; pH 8.4, 298 K) of the same molecule?
**A.** Its value is ~ 2.

**Q.** And the ΔH (K28H/Q32H GB1; pH 8.4, 298 K)?
**A.** Its ΔH is -15.2 kcal/mol.

**Q.** What about the “n (stoichiometry of binding)” value (K28H/Q32H GB1; pH 8.4, 298 K, listed as CuII-NTA) of the same molecule?
**A.** The value was 2.04.

**Q.** And the Kd (K28H/Q32H GB1; pH 8.4, 298 K, listed as CuII-NTA, read-out: KD)?
**A.** Its Kd is 7.96 µM.

**Q.** And the Kd (K28H/Q32H GB1; pH 8.4, 298 K, read-out: KD)?
**A.** Its Kd is 8 µM.

**Q.** And the “predicted increase in affinity compared to previous work” value (K28H/Q32H GB1; pH 8.4, predicted from room-temperature ITC)?
**A.** The value was 20 fold.

**Q.** And the Wiseman factor (K28H/Q32H GB1; pH 9.0)?
**A.** Its Wiseman factor is 3.00.

**Q.** What about the ΔH (K28H/Q32H GB1; pH 9.0, 298 K) of the same molecule?
**A.** Its ΔH is -2.92 kcal/mol.

**Q.** And the “n (stoichiometry of binding)” value (K28H/Q32H GB1; pH 9.0, 298 K, 1 mM CuII-NTA)?
**A.** The value was 0.94.

**Q.** What about the Kd (K28H/Q32H GB1; pH 9.0, 298 K, read-out: KD) of the same molecule?
**A.** The Kd was 25 µM.

**Q.** What about the Kd (K28H/Q32H GB1; pH 9.0, read-out: Predicted KD at 235 K) of the same molecule?
**A.** The Kd was 6.67 µM.

**Q.** And the “robust against Zn^II–NTA competitor ligand in molar excess” value (I6R1/K28H/Q32H GB1 [3])?
**A.** Its value is greater than 1000 fold.

**Q.** And the Kd (6R1/28H/32H GB1)?
**A.** Its Kd is 5 µM.
